Experimental data taken from patent US20260327191A1, “GSK3a INHIBITORS AND METHODS OF USE THEREOF” (Blueprint Medicines Corporation, priority 2023, published 2026).
Structures can show the parent of a compound that is named as a salt.

How the values were obtained:
human GSK3α = biological target: T1, human GSK3α (Homo sapiens, UniProt P49840); assay: In vitro enzymatic activity assay, GSK3α; assay type: biochemical; conditions: 1.0 mM ATP, 1.0 μM peptide substrate, 120 min, 25° C, read-out: Enzyme GSK3α (IC50)
T1 construct: Full length human GSK3α or GSK3B expressed as N-terminal GST fusion proteins; GST (N); purchased Carna Biosciences (Japan); host or cells: baculovirus host
T1 sequence (P49840 whole entry, the tested form may be a part): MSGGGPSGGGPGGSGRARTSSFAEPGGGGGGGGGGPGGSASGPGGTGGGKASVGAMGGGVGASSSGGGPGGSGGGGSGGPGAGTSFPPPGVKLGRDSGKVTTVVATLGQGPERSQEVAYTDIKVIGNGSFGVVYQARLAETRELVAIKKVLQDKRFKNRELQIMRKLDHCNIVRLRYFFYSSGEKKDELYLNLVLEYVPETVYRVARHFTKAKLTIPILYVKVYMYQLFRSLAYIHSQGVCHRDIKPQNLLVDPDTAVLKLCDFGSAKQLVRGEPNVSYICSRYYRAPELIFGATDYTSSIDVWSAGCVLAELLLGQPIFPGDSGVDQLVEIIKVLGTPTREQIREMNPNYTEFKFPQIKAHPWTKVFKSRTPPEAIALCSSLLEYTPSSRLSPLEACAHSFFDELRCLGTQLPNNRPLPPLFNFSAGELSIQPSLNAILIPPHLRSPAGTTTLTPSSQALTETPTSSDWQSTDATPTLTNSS

GSK3A = biological target: T2, GSK3A (Homo sapiens, UniProt P49840); assay: NanoBRET cellular target engagement assay, Nanoluc-GSK3A in HEK293 cells; assay type: cell-based; conditions: NanoBRET GSK3α IC50, HEK293 cells, tracer K-8, 2 hours, 37° C
T2 construct: expressed in transfected cells
T2 sequence (P49840 whole entry): as the sequence (P49840 whole entry, the tested form may be a part) above

GSK3B [1] = biological target: T3, GSK3B (Homo sapiens, UniProt P49841); assay: NanoBRET cellular target engagement assay, Nanoluc-GSK3B in HEK293 cells; assay type: cell-based; parameters: expressed in transfected cells; conditions: NanoBRET GSK3β IC50, HEK293 cells, tracer K-8, 2 hours, 37° C
T3 sequence (P49841 whole entry, the tested form may be a part): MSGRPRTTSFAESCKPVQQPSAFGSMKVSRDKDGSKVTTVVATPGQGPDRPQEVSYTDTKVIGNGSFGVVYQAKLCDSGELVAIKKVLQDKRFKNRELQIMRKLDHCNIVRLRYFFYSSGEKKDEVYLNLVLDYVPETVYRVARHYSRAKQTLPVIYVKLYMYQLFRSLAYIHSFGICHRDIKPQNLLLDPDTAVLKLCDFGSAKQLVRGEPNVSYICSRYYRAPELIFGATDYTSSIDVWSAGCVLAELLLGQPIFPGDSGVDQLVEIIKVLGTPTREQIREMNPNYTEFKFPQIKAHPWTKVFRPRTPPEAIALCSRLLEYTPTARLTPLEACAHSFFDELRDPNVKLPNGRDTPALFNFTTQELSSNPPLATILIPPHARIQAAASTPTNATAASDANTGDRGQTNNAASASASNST

GSK3B [2] = biological target: T3, GSK3B; assay: In vitro enzymatic activity assay, GSK3β; assay type: biochemical; parameters: Full length human GSK3α or GSK3B expressed as N-terminal GST fusion proteins; GST (N); purchased Carna Biosciences (Japan); host or cells: baculovirus host; conditions: 1.0 mM ATP, 1.0 μM peptide substrate, 120 min, 25° C, read-out: Enzyme GSK3β (IC50)

SMILES	IC50 (human GSK3α)	IC50 (GSK3A)	IC50 (GSK3B [1])	IC50 (GSK3B [2])
COc1cc(C)c(-n2cnc(N)c(C(=O)N[C@@H]3CCC[C@H](CN)C3)c2=O)c(Cl)c1 (single isomer, unassigned) [Example 206, 4-amino-N-((1R,3S)-3-(aminomethyl)cyclohexyl)-1-((S)-2-chloro-4-methoxy-6-methylphenyl)-6-oxo-1,6-dihydropyrimidine-5-carboxamide or 4-amino-N-((1S,3R)-3-(aminomethyl)cyclohexyl)-1-((S)-2-chloro-4-methoxy-6-methylphenyl)-6-oxo-1,6-dihydropyrimidine-5-carboxamide]	9.4 nM	3.1 nM	139 nM	260 nM
Nc1ncn(-c2c(Cl)cccc2Cl)c(=O)c1C(=O)Nc1cccc([C@@H]2COCCCN2)c1 (single isomer, unassigned) [Example 211, (R)—N-(3-(1,4-oxazepan-3-yl)phenyl)-4-amino-1-(2,6-dichlorophenyl)-6-oxo-1,6-dihydropyrimidine-5-carboxamide or (S)—N-(3-(1,4-oxazepan-3-yl)phenyl)-4-amino-1-(2,6-dichlorophenyl)-6-oxo-1,6-dihydropyrimidine-5-carboxamide]	15.9 nM	8.6 nM	797 nM	888 nM
COc1cc(Cl)c(-n2cnc(N)c(C(=O)Nc3cncc([C@@H]4CCN4)c3)c2=O)c(Cl)c1 (single isomer, unassigned) [Example 213, (S)-4-amino-N-(5-(azetidin-2-yl)pyridin-3-yl)-1-(2,6-dichloro-4-methoxyphenyl)-6-oxo-1,6-dihydropyrimidine-5-carboxamide or (R)-4-amino-N-(5-(azetidin-2-yl)pyridin-3-yl)-1-(2,6-dichloro-4-methoxyphenyl)-6-oxo-1,6-dihydropyrimidine-5-carboxamide]	33.2 nM	7.8 nM	992 nM	1760 nM
COc1cc(Cl)c(-n2cnc(N)c(C(=O)Nc3cncc([C@@H]4C[C@@H](C)N4)c3)c2=O)c(Cl)c1 (single isomer, unassigned) [Example 214, 4-amino-1-(2,6-dichloro-4-methoxyphenyl)-N-(5-((2S,4R)-4-methylazetidin-2-yl)pyridin-3-yl)-6-oxo-1,6-dihydropyrimidine-5-carboxamide formate or 4-amino-1-(2,6-dichloro-4-methoxyphenyl)-N-(5-((2R,4S)-4-methylazetidin-2-yl)pyridin-3-yl)-6-oxo-1,6-dihydropyrimidine-5-carboxamide formate]	17.3 nM	8.9 nM	640 nM	930 nM
CCc1cc(C)c(-n2cnc(N)c(C(=O)Nc3cncc([C@@H](C)N)c3)c2=O)c(C)c1 (single isomer, unassigned) [Example 218, (R)-4-amino-N-(5-(1-aminoethyl)pyridin-3-yl)-1-(4-ethyl-2,6-dimethylphenyl)-6-oxo-1,6-dihydropyrimidine-5-carboxamide or (S)-4-amino-N-(5-(1-aminoethyl)pyridin-3-yl)-1-(4-ethyl-2,6-dimethylphenyl)-6-oxo-1,6-dihydropyrimidine-5-carboxamide]	10.8 nM	5.6 nM	401 nM	421 nM

These reach a lower IC50 (human GSK3α). Values come first.

IC50 (human GSK3α)	IC50 (GSK3A)	IC50 (GSK3B [1])	IC50 (GSK3B [2])	SMILES
8.3 nM	6.2 nM	383 nM	378 nM	CCNCc1cncc(NC(=O)c2c(N)ncn(-c3c(Cl)cccc3Cl)c2=O)c1 [Example 5, 4-amino-1-(2,6-dichlorophenyl)-N-(5-((ethylamino)methyl)pyridin-3-yl)-6-oxo-1,6-dihydropyrimidine-5-carboxamide]
7.8 nM	8 nM	424 nM	305 nM	Cc1cccc(Cl)c1-n1cnc(N)c(C(=O)Nc2cccc([C@@H]3CCCN3)c2F)c1=O (single isomer, unassigned) [Example 217, (S)-4-amino-1-((S)-2-chloro-6-methylphenyl)-N-(2-fluoro-3-(pyrrolidin-2-yl)phenyl)-6-oxo-1,6-dihydropyrimidine-5-carboxamide or (R)-4-amino-1-((S)-2-chloro-6-methylphenyl)-N-(2-fluoro-3-(pyrrolidin-2-yl)phenyl)-6-oxo-1,6-dihydropyrimidine-5-carboxamide]
7.2 nM	8.5 nM	690 nM	500 nM	Nc1ncn(-c2c(Cl)cccc2Cl)c(=O)c1C(=O)Nc1cncc([C@H]2CCOCCN2)c1 (single isomer, unassigned) [Example 215, (R)—N-(5-(1,4-oxazepan-5-yl)pyridin-3-yl)-4-amino-1-(2,6-dichlorophenyl)-6-oxo-1,6-dihydropyrimidine-5-carboxamide or (S)—N-(5-(1,4-oxazepan-5-yl)pyridin-3-yl)-4-amino-1-(2,6-dichlorophenyl)-6-oxo-1,6-dihydropyrimidine-5-carboxamide]
7.2 nM	6.5 nM	352 nM	292 nM	CN[C@H](C)c1cc(F)cc(NC(=O)c2c(N)ncn(-c3c(Cl)cccc3Cl)c2=O)c1 [Example 6, (R)-4-amino-1-(2,6-dichlorophenyl)-N-(3-fluoro-5-(1-(methylamino)ethyl)phenyl)-6-oxo-1,6-dihydropyrimidine-5-carboxamide trifluoroacetate]
5.4 nM	3.8 nM	187 nM	271 nM	CCOc1cc(Cl)c(-n2cnc(N)c(C(=O)Nc3cncc([C@@H](C)N)n3)c2=O)c(Cl)c1 (single isomer, unassigned) [Example 219, (R)-4-amino-N-(6-(1-aminoethyl)pyrazin-2-yl)-1-(2,6-dichloro-4-ethoxyphenyl)-6-oxo-1,6-dihydropyrimidine-5-carboxamide or (S)-4-amino-N-(6-(1-aminoethyl)pyrazin-2-yl)-1-(2,6-dichloro-4-ethoxyphenyl)-6-oxo-1,6-dihydropyrimidine-5-carboxamide]
4.7 nM	7.6 nM	520 nM	272 nM	COc1cc(Cl)c(-n2cnc(N)c(C(=O)Nc3cncc(C4COCCN4)c3)c2=O)c(Cl)c1 (single isomer, unassigned) [Example 212, (S)-4-amino-1-(2,6-dichloro-4-methoxyphenyl)-N-(5-(morpholin-3-yl)pyridin-3-yl)-6-oxo-1,6-dihydropyrimidine-5-carboxamide or (R)-4-amino-1-(2,6-dichloro-4-methoxyphenyl)-N-(5-(morpholin-3-yl)pyridin-3-yl)-6-oxo-1,6-dihydropyrimidine-5-carboxamide]
2.1 nM	4.6 nM	148 nM	99.2 nM	COc1cc(Cl)c(-n2cnc(N)c(C(=O)Nc3cc(F)cc([C@H]4CCCCN4)c3)c2=O)c(Cl)c1 (single isomer, unassigned) [Example 222, (R)-4-amino-1-(2,6-dichloro-4-methoxyphenyl)-N-(3-fluoro-5-(piperidin-2-yl)phenyl)-6-oxo-1,6-dihydropyrimidine-5-carboxamide or (S)-4-amino-1-(2,6-dichloro-4-methoxyphenyl)-N-(3-fluoro-5-(piperidin-2-yl)phenyl)-6-oxo-1,6-dihydropyrimidine-5-carboxamide]
